Reference: ChEMBL document CHEMBL1201862, “PubChem BioAssay data set” (2004)
Activity calls are given as the source filed them.

How the values were obtained:
[1] = viability of uninfected HEp-2 cells – cell-based, HTS, cytotoxicity control for RSV inhibitor project, dose response (AID 2410); type: functional; conditions: human respiratory syncytial virus
Beta-galactosidase = Beta-galactosidase (Escherichia coli, UniProt Q8VNN2); experiment: Dose response counterscreen for EBI2 assay utilizing the enzyme, b-galactosidase.; type: functional
Sequence of Beta-galactosidase (Q8VNN2 whole entry): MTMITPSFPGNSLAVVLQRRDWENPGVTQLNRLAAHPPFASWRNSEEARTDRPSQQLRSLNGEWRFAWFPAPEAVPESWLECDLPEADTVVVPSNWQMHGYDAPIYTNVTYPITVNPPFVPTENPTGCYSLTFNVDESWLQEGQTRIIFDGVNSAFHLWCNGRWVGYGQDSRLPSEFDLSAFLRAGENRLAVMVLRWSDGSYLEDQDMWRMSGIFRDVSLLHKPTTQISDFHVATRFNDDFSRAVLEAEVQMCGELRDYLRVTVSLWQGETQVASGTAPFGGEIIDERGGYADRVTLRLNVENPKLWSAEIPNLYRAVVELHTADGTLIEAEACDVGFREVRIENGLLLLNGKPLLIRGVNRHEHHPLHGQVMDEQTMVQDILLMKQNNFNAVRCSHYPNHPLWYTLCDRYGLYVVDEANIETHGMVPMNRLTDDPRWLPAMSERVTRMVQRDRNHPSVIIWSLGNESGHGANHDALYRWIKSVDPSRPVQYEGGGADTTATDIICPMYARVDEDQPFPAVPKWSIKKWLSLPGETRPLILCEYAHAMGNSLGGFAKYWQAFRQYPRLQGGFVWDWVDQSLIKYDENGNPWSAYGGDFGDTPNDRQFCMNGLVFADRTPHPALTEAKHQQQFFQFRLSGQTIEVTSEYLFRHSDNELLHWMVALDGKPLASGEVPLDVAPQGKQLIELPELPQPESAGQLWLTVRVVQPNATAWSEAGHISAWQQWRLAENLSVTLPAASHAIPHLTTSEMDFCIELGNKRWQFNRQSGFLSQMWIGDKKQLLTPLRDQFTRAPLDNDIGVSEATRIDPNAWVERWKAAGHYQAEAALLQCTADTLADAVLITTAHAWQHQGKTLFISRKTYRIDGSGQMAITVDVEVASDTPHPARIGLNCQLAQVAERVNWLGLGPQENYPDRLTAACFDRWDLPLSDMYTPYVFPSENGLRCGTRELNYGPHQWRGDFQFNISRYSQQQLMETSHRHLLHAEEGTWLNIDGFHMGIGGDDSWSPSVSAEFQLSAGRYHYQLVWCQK

[2] = reduction of Shn3 3'UTR-driven luciferase in osteoblasts – cell-based, Clone20 osteoblasts, firefly luciferase, cherry-picked, dose response (AID 624132); type: functional;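 note: firefly luciferase luminescence from reporter carrying the Shn3 3'UTR in osteoblasts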
[3] = loss of viability in HepG2 cells – cell-based, CellTiter-Glo, cherry-picked, cytotoxicity control for Shn3 inhibitor project, dose response (AID 624134); type: functional
cells = type: functional
[4] = THP-1 cell cytotoxicity, dose response, cytotoxicity control for non-replicating M. tuberculosis project (AID 489025); type: functional
[5] = non-specific 3'UTR reporter inhibition in Clone20-Shn3RL – cell-based, Renilla luciferase, cherry-picked, counter-screen for Shn3 inhibitor project, dose response (AID 624133); type: functional
Steroidogenic factor 1 = Steroidogenic factor 1 (Homo sapiens, UniProt Q13285); experiment: Counterscreen for inverse agonists of the liver receptor homolog-1 (LRH-1; NR5A2): Luminescence-based cell-based high throughput dose response assay to identify inverse agonists of the Steroidogenic Factor 1 Nuclear Receptor (SF1; NR5A1).; type: functional
Sequence of Steroidogenic factor 1 (Q13285 whole entry): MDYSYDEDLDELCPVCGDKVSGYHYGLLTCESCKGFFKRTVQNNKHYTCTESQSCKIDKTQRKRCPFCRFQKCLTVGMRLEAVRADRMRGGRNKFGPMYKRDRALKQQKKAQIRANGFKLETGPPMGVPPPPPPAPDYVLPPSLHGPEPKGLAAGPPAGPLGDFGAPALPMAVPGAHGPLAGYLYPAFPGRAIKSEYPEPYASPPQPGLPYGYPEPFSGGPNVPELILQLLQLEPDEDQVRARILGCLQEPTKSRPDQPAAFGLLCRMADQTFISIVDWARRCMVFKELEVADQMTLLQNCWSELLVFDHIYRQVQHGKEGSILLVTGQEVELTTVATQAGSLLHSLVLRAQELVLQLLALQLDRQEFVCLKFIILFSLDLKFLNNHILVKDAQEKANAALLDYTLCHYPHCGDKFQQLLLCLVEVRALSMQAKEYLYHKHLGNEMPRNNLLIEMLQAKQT

[6] = target: Nuclear receptor subfamily 5 group A member 2 (Homo sapiens, UniProt O00482); type: functional, cell-based;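 note: HEK293T cells transfected with LRH-1 and a StAR promoter luciferase reporter; potency for inhibitors that lower LRH-1 driven reporter light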
Sequence of Nuclear receptor subfamily 5 group A member 2 (O00482 whole entry): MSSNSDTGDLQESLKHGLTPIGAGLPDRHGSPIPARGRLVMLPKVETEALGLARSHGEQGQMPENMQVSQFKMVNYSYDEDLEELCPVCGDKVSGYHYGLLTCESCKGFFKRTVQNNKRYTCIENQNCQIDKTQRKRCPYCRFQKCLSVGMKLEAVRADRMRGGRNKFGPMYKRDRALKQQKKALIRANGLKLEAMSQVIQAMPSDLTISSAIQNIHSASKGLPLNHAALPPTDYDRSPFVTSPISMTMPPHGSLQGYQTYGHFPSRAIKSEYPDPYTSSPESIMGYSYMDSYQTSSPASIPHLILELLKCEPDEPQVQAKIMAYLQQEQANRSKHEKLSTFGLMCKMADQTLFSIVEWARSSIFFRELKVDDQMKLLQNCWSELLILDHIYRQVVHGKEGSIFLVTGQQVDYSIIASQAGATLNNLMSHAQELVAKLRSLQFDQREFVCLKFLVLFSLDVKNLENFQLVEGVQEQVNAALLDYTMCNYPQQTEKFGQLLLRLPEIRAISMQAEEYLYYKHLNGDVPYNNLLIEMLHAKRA

[7] = nonselective StAR promoter luciferase inhibitors – cell-based, luminescence, luciferase reporter, counter-screen for LRH-1 inverse agonist project, dose response (AID 651969); type: functional
[8] = Vero E6 cell cytotoxicity, dose response, cytotoxicity control for non-replicating M. tuberculosis project, secondary assay (AID 492998); type: functional, VeroE6; conditions: Vero C1008
INS1 = experiment: INS-1E survival protection against cytokine death – cell-based, luminescence, retest, dose response (AID 449756); type: functional; conditions: Rattus norvegicus;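 note: cell death triggered by IL-1 beta plus TNF-alpha plus IFN-gamma mixture; protective hits raise ATP signal compared with cytokine alone wells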
Streptokinase A = target: T1, Streptokinase A (Streptococcus pyogenes serotype M1, UniProt P10520); experiment: viability-normalized secreted streptokinase activity reduction – plasminogen activation absorbance, OD405, dose response (AID 1914); type: functional, Streptococcus pyogenes M1 GAS;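 note: secreted streptokinase activity via plasminogen activation per viability signal from cell pellet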
T1 sequence (P10520 whole entry): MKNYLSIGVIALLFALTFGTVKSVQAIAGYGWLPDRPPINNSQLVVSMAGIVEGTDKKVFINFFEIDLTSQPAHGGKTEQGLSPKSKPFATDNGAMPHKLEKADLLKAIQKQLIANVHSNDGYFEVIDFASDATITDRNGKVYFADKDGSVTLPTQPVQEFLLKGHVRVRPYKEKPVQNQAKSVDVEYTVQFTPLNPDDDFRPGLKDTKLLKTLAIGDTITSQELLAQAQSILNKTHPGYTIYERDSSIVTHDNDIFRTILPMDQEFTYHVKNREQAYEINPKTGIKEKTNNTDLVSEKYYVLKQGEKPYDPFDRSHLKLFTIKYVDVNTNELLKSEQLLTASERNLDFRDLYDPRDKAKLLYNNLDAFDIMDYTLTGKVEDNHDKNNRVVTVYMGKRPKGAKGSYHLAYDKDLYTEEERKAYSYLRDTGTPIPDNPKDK

[9] = target: T2, Replicative DNA helicase DnaB (Mycobacterium tuberculosis, UniProt P9WMR3); experiment: DnaB intein splicing inhibitors, dose response, biochemical, cell-free fluorescence (AID 449749); type: functional
T2 sequence (P9WMR3 whole entry): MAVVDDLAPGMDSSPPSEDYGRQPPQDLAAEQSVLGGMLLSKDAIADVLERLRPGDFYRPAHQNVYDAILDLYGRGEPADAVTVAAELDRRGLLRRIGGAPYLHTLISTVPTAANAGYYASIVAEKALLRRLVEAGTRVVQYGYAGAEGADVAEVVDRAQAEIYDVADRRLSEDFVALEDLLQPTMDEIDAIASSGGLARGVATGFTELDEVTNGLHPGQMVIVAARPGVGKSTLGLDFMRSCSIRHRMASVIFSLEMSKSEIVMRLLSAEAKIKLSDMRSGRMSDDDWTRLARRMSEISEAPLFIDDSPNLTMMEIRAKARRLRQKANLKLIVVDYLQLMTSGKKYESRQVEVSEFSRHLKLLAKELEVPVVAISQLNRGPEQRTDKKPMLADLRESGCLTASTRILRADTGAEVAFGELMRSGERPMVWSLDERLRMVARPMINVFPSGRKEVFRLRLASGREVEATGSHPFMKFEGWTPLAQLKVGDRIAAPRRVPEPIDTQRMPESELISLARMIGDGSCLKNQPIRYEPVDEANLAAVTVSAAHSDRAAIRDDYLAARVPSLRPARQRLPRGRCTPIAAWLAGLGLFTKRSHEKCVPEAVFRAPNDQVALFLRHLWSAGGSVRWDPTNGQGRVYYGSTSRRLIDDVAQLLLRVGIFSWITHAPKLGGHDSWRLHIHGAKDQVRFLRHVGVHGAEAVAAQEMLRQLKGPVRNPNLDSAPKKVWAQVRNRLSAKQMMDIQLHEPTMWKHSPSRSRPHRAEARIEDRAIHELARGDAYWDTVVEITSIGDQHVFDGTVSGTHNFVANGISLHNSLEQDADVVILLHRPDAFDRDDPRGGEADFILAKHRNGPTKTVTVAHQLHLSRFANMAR

[10] = NIH3T3 cell viability loss – ATP luminescence, mouse fibroblasts, counter-screen, dose response (AID 2010); type: functional, cell-based;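 note: cells exposed to compound for about 90 hours before reading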
Protein RecA = target: T3, Protein RecA (Mycobacterium tuberculosis, UniProt P9WHJ3); experiment: Fluorescence Cell-Free Homogeneous Dose Retest to Identify Inhibitors of RecA-Intein Splicing Activity. [Related pubchem assays (depositor defined):AID2097, AID2223, AID489010, AID492950]; type: functional
T3 sequence (P9WHJ3 whole entry): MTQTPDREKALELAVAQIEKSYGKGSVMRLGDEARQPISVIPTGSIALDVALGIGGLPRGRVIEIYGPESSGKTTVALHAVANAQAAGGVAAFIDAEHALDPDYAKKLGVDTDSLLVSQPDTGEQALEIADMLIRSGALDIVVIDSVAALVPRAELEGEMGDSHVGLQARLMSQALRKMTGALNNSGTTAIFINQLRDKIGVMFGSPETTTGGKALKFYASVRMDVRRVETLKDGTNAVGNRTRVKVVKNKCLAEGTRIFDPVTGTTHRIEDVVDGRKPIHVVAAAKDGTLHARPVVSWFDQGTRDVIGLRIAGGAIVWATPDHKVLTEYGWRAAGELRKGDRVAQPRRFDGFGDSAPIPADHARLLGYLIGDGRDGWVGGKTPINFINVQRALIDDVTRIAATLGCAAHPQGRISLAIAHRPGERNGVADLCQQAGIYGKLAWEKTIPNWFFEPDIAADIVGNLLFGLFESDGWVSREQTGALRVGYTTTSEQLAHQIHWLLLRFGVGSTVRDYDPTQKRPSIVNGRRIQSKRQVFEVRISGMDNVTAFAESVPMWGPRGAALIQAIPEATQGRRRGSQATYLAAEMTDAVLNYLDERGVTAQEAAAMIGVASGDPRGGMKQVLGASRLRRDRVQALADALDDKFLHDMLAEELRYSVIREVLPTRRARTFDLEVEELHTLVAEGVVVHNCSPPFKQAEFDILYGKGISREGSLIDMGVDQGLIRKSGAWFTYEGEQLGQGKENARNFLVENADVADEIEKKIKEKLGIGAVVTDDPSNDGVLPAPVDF

[11] = tested on: Streptococcus sp. 'group A'; experiment: Streptococcus pyogenes SK(-)GAS viability under kanamycin – luminescence, BacTiterGlo, confirmation, counter-screen for streptokinase expression inhibitor project, dose response (AID 1900); type: functional, organism-based
[12] = target: T4, Heat shock factor protein 1 (Mus musculus, UniProt P38532); experiment: enhancement of HSF1-driven luciferase signal – cell-based, NIH3T3, luminescence, dose retest, confirmation (AID 435004); type: functional;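 note: stress induced by proteasome inhibitor MG132 added 30 min after compound; luciferase reporter driven by HSF1 response element in NIH3T3 cells; actives raise luminescence as potentiators of the MG132 stress response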
T4 sequence (P38532 whole entry): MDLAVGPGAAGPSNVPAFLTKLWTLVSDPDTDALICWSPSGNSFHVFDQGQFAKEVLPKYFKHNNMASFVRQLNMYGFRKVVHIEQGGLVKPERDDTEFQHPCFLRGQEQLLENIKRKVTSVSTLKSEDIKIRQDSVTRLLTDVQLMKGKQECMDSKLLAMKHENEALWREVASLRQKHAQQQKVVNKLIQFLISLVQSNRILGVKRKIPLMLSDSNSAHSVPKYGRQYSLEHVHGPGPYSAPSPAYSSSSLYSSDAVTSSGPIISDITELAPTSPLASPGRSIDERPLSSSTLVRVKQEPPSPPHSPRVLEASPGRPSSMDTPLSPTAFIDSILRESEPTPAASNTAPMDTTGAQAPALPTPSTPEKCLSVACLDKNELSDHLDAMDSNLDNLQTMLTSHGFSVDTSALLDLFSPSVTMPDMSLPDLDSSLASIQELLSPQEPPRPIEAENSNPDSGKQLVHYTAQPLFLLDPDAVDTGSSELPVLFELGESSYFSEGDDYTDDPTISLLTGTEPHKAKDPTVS

Streptococcus = experiment: GAS UMAA2166 growth inhibition – luminescence, BacTiterGlo, counter-screen for streptokinase expression inhibitor project, dose response (AID 1915); type: functional, organism-based;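 note: potency for reduction of bacterial viability or growth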
[13] = Luminescence Cell-Based Dose Retest to Confirm Inhibitors of Cancer Stem Cells. [Related pubchem assays (depositor defined):AID2717, AID2721]; type: functional; conditions: Homo sapiens
[14] = Trypanosoma cruzi growth suppression in host cells – NIH3T3 host cells, beta-gal luminescence, confirmation (AID 2044); type: functional, cell-based;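 note: intracellular parasites grown in NIH/3T3 mouse fibroblasts as host cells; luminescent beta-galactosidase reporter signal from transgenic T. cruzi replicating inside host cells; inhibitors lower the luminescence signal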
Melanocortin receptor 4 = Melanocortin receptor 4 (Homo sapiens, UniProt P32245); type: functional, cell-based;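 note: Cell-based assay with luminescence read-out, confirmatory dose-response testing for agonist activity of biased ligands at MC4R; human U2OS cells with tagged receptor and beta-arrestin; potency of agonists that increase receptor coupling to beta-arrestin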
Sequence of Melanocortin receptor 4 (P32245 whole entry): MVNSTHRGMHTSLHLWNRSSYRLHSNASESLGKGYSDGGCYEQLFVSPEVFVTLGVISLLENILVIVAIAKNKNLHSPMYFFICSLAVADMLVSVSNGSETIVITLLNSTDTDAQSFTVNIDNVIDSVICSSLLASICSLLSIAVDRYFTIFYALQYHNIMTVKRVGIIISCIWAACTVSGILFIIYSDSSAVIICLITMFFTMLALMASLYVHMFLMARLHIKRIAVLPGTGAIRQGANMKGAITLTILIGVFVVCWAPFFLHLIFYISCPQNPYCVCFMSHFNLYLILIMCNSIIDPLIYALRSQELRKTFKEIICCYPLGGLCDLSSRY

[15] = target: Adenosylmethionine-8-amino-7-oxononanoate aminotransferase (Mycobacterium tuberculosis, UniProt P9WQ81); experiment: Mycobacterium tuberculosis BioA enzyme inhibitor Measured in Biochemical System Using Plate Reader - 2163-02_Inhibitor_Dose_CherryPick_Activity.; type: functional, Mycobacterium tuberculosis UT205
Sequence of Adenosylmethionine-8-amino-7-oxononanoate aminotransferase (P9WQ81 whole entry): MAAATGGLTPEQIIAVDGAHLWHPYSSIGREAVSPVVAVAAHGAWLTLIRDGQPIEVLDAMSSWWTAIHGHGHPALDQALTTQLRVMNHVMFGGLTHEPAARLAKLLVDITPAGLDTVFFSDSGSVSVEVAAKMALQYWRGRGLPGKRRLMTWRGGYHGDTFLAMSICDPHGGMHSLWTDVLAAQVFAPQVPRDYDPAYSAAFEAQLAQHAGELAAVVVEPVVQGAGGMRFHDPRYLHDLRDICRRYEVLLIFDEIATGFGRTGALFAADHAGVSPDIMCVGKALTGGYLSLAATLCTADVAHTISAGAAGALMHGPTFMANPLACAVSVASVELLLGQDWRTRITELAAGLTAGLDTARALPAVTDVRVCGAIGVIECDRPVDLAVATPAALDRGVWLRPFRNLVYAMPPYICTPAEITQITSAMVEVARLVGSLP

[16] = cytotoxicity toward MDA-MB-231 breast cancer cells – cell-based, CellTiter-Glo luminescence, cherry-pick, cytotoxicity control for RAD54 inhibitor project, dose response (AID 651692); type: functional
[17] = target: T5, DNA repair and recombination protein RAD54-like (Homo sapiens, UniProt Q92698); experiment: RAD54 Holliday junction migration blockers – biochemical, fluorescence, cherry-picked samples, dose series, confirmation (AID 651657); type: functional
T5 sequence (Q92698 whole entry): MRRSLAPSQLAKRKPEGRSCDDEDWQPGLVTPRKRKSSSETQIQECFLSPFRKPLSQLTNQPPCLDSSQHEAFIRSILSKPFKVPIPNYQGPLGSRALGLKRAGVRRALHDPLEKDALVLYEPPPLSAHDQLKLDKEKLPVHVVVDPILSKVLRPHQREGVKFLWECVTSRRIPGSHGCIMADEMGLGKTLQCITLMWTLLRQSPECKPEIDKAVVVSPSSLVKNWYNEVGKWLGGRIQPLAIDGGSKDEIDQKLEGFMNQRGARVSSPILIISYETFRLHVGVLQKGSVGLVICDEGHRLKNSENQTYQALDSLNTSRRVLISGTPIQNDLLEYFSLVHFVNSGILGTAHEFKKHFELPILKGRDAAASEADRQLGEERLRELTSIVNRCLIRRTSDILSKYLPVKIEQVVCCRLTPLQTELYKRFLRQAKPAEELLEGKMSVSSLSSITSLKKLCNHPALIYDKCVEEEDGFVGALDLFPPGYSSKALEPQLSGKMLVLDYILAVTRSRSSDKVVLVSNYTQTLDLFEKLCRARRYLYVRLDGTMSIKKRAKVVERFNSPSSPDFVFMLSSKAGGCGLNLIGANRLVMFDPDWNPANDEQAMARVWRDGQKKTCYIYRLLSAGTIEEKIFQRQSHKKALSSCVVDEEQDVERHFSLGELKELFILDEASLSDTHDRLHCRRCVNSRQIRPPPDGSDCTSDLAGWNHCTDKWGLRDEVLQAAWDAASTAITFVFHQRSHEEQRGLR

Cc1ccc(C)c(N2CCN(C(=O)c3cc4c(C)nc5ccccc5c4o3)CC2)c1
CC50 [1]: 8.05 µM (active) | IC50 (Beta-galactosidase): > 80 µM (inactive)

O=C(Nc1ccc(Cc2ccncc2)cc1)c1ccc([N+](=O)[O-])o1
AC50 [2]: 2.71 µM (active) | AC50 [3]: 25.4 µM (active) | IC50 (cells): 1.3 µM (active) | CC50 [4]: 5.59 µM (active) | AC50 [5]: 13.9 µM (active) | IC50 (Steroidogenic factor 1): 0.831 µM (active) | IC50 [6]: 35.9 µM (inactive) | IC50 [7]: 35.9 µM (inactive) | CC50 [8]: 4.99 µM (active) | AC50 (INS1): 7.72 µM (active)

O=C1C2=C(N=C(S)NC2c2ccc(Cl)cc2)NC(c2ccc(Cl)cc2)N1c1ccc(Cl)cc1 (stereo not drawn)
EC50 (Streptokinase A): > 150 µM (not active) | AC50 [9]: 5.92 µM (active) | EC50 [10]: > 60 µM (not active) | EC50 (Protein RecA): 13.1 µM (active) | EC50 [11]: 1.89 µM (active) | EC50 [12]: > 260 µM (inactive) | EC50 (Streptococcus): 2.61 µM (active) | AC50 [13]: 4.68 µM (active) | EC50 [14]: 3.44 µM (active) | EC50 (Melanocortin receptor 4): 9.63 µM (active)

O=C(OCC(=O)N1CCN(C(=O)COC(=O)c2ccc(O)cc2O)CC1)c1ccc(O)cc1O
IC50 (Steroidogenic factor 1): 3.09 µM (active) | IC50 [6]: 3.12 µM (active) | IC50 [7]: 35.9 µM (inactive)

COC(=O)[C@@H]1[C@@H](CO)[C@@H]2Cn3c(ccc(-c4ccccc4)c3=O)[C@@H]2N1Cc1cccc(F)c1
AC50 [15]: 4.33 µM (active)

CCOC(=O)c1c(C)n(-c2ccc(OC)cc2)c2ccc(O)c(CN(C)C)c12
AC50 [16]: 34.4 µM (active) | AC50 [17]: 52.6 µM (active)
